pIC50: −log10 of the molar value.
Experiments:
[1] = target: T1, BRM (Homo sapiens, UniProt P51531); assay: ATPase catalytic activity of BRM, ADP-Glo in vitro biochemical assay; conditions: for pIC50: ADP-Glo ATPase assay, 30 nM BRM, 400 μM ATP; for Ratio* (BRG1 IC50 (μM) divided by BRM IC50 (μM)): selectivity ratio BRG1 IC50 / BRM IC50
T1 construct: made in house; host or cells: High Five insect cells
Procedure, shortened: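 Recombinant BRM (30 nM) hydrolysed 400 μM ATP with 20 nM salmon sperm DNA in pH 8 Tris buffer containing 20 mM MgCl2, 50 mM NaCl, 0.1% Tween-20 and 1 mM DTT, 1 h at room temperature. ADP formed was quantified by ADP-Glo luminescence.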

[2] = target: T2, BRG-1 (Homo sapiens, UniProt P51532); assay: ATPase catalytic activity of BRG-1, ADP-Glo in vitro biochemical assay; conditions: ADP-Glo ATPase assay, 30 nM BRG-1, 400 μM ATP; read-out: BRG1 IC50
T2 construct: made in house; host or cells: High Five insect cells
Procedure, shortened: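 BRG-1 ATPase activity was measured in vitro by ADP-Glo. After the reaction, ADP-Glo Reagent depleted unconsumed ATP (40 min, room temperature), then Kinase Detection Reagent converted product ADP to ATP (60 min, room temperature), and luciferase luminescence was read.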

T2 sequence (P51532 whole entry): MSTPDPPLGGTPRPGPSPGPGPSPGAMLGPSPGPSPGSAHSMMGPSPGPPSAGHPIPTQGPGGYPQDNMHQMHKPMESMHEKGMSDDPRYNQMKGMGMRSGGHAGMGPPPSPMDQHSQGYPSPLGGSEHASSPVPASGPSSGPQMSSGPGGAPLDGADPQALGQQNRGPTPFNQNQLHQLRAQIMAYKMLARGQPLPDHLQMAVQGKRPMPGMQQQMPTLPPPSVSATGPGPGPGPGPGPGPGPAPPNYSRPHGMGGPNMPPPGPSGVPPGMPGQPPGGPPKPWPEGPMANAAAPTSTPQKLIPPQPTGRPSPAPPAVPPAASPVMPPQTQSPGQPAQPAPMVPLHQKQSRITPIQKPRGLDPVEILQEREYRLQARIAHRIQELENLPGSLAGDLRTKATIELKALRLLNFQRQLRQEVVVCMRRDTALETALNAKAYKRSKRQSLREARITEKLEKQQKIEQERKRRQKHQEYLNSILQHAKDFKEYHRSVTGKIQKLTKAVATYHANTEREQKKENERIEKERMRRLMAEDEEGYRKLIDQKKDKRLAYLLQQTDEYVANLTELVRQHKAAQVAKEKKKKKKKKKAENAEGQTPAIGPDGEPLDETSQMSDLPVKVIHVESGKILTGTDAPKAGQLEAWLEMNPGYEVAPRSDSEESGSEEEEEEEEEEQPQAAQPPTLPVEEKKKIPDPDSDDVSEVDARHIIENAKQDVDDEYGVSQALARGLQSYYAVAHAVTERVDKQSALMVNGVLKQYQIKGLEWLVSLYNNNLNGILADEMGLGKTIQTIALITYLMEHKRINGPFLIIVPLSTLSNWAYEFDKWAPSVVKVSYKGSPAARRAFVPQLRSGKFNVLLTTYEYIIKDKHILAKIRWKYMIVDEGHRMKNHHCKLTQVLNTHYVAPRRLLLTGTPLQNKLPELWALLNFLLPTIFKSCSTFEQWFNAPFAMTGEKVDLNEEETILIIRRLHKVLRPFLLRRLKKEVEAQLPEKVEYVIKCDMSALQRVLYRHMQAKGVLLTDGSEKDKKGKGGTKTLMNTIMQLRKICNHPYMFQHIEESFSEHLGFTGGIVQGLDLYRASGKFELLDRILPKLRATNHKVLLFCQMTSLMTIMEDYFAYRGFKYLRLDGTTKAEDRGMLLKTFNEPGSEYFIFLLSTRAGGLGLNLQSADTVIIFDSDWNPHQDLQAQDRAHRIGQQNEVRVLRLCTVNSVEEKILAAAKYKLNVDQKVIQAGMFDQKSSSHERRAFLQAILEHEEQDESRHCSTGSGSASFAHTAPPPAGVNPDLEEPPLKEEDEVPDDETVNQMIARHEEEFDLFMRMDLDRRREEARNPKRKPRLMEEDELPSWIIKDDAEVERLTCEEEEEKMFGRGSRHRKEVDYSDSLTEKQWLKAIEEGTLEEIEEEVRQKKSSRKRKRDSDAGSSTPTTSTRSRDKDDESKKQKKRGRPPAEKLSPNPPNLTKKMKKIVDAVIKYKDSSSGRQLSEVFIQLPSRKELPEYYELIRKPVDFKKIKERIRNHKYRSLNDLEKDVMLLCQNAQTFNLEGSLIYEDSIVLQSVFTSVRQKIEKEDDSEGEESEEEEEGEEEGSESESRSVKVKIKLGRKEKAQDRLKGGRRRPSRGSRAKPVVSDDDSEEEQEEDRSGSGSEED
T1 sequence (P51531 whole entry): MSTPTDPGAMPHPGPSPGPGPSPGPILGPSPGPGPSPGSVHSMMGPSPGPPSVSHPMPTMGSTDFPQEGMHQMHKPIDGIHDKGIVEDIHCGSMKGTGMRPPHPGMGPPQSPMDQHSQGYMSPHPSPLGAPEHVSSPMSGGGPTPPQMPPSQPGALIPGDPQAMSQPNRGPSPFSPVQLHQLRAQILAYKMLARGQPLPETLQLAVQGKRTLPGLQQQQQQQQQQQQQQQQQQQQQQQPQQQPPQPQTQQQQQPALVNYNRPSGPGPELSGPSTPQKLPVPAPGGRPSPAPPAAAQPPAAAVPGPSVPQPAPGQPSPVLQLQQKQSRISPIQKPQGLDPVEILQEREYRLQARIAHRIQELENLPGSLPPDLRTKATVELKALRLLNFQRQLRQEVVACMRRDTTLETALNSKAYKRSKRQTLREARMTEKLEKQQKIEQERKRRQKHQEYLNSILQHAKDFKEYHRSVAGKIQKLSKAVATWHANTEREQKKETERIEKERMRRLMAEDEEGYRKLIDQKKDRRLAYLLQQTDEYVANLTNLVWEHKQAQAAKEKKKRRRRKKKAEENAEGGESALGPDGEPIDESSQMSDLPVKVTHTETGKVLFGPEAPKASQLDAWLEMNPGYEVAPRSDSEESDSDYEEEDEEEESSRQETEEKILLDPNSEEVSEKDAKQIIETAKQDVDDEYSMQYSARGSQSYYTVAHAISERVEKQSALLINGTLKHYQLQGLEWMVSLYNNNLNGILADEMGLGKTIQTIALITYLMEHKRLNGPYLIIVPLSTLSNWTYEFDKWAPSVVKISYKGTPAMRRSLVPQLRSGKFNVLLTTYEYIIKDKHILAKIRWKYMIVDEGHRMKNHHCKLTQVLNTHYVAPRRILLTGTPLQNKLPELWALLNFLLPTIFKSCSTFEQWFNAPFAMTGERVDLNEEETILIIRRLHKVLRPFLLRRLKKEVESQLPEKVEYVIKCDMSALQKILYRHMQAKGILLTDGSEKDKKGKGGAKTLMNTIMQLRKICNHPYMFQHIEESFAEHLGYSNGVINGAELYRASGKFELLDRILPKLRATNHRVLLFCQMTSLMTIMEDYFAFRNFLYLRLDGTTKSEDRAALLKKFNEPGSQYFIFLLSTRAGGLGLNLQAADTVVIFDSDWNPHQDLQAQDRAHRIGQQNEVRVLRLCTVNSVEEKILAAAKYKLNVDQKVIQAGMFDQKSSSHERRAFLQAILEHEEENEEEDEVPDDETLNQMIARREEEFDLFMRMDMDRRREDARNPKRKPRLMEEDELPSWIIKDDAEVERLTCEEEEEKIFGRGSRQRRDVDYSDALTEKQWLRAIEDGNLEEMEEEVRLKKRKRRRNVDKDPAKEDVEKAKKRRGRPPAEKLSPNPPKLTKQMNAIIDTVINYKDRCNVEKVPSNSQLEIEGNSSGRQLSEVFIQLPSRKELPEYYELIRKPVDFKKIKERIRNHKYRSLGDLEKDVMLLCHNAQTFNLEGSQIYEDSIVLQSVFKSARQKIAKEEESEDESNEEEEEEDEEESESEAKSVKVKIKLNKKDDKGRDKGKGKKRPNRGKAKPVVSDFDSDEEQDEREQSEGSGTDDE

Row | Compound | pIC50 [1] | Ratio* (BRG1 IC50 (μM) divided by BRM IC50 (μM)) [1] | pIC50 [2]
1 | C[C@@H]1CN(c2cccc(-c3ccc4cnc(CNC(=O)c5ccc(Cl)c(S(C)(=O)=O)c5)cc4n3)n2)C[C@H](C)O1 [Compound 213] | 8.02 | 13.94 | 6.88
2 | C[C@@]1(c2cccc(-c3ccc4cnc(CNC(=O)c5ccc6c(c5)S(=O)(=O)CCOC6)cc4n3)n2)CC1(F)F [Compound 214] | 6.48 | 10.01 | 5.48
3 | C[C@@H]1CN(c2cccc(-c3ccc4cnc(CNC(=O)c5ccc6c(c5)S(=O)(=O)CCOC6)cc4n3)n2)C[C@@H](C)O1 [Compound 215] | 8.15 | 9.47 | 7.18
4 | C[C@H]1CN(c2cccc(-c3ccc4cnc(CNC(=O)c5ccc6c(c5)S(=O)(=O)CCOC6)cc4n3)n2)C[C@H](C)O1 [Compound 216] | 7.96 | 8.63 | 7.03
5 | O=C(NCc1cc2nc(-c3ccnc([C@H]4CC4(F)F)n3)ccc2cn1)c1ccc2c(c1)S(=O)(=O)CCOC2 [Compound 217] | 7.21 | 15.77 | 6.02
6 | O=C(NCc1cc2nc(-c3ccnc([C@@H]4CC4(F)F)n3)ccc2cn1)c1ccc2c(c1)S(=O)(=O)CCOC2 [Compound 218] | 6.78 | 9.79 | 5.79
7 | C[C@]1(c2cccc(-c3ccc4cnc(CNC(=O)c5ccc6c(c5)S(=O)(=O)CCOC6)cc4n3)n2)CC1(F)F [Compound 219] | 6.87 | 9.05 | 5.91
8 | O=C(NCc1cc2nc(-c3cccc(N4CCCC4)n3)ccc2cn1)c1ccc2c(c1)S(=O)(=O)CCOC2 [Compound 220] | 7.80 | 9.02 | 6.84
9 | COCC1CN(c2cccc(-c3ccc4cnc(CNC(=O)c5ccc6c(c5)S(=O)(=O)CCOC6)cc4n3)n2)C1 [Compound 221] | 7.08 | 9.65 | 6.10
10 | O=C(NCc1cc2nc(-c3cccc(N4CC[C@@H](F)C4)n3)ccc2cn1)c1ccc2c(c1)S(=O)(=O)CCOC2 [Compound 222] | 7.89 | 10.58 | 6.87
11 | C[C@H]1CN(c2cccc(-c3ccc4cnc(CNC(=O)c5ccc6c(c5)S(=O)(=O)CCOC6)cc4n3)n2)CCO1 [Compound 223] | 8.16 | 7.16 | 7.30
12 | O=C(NCc1cc2nc(-c3cccc(N4CC[C@H](F)C4)n3)ccc2cn1)c1ccc2c(c1)S(=O)(=O)CCOC2 [Compound 224] | 7.59 | 14.09 | 6.44
13 | C[C@@H]1CN(c2cccc(-c3ccc4cnc(CNC(=O)c5ccc6c(c5)S(=O)(=O)CCOC6)cc4n3)n2)CCO1 [Compound 225] | 8.34 | 6.29 | 7.54
14 | O=C(NCc1cc2nc(-c3cccc(N4CCOCC4)n3)ccc2cn1)c1ccc2c(c1)S(=O)(=O)CCOC2 [Compound 226] | 7.95 | 12.29 | 6.86
15 | COC1CN(c2cccc(-c3ccc4cnc(CNC(=O)c5ccc6c(c5)S(=O)(=O)CCOC6)cc4n3)n2)C1 [Compound 228] | 7.69 | 13.77 | 6.55
16 | O=C(NCc1cc2nc(-c3cccc4c3OCO4)ccc2cn1)c1ccc2c(c1)S(=O)(=O)CCOC2 [Compound 229] | 6.93 | 12.81 | 5.82
17 | O=C(NCc1cc2nc(-c3cncc(C4CC4)n3)ccc2cn1)c1cnc2c(c1)S(=O)(=O)CCCC2 [Compound 230] | 7.38 | 9.60 | 6.40
18 | CS(=O)(=O)c1cc(C(=O)NCc2cc3nc(-c4cncc(C5CC5)n4)ccc3cn2)ccc1C(F)F [Compound 231] | 6.89 | 17.98 | 5.63
19 | O=C(NCc1cc2nc(-c3ccccc3OC3CC3)ccc2cn1)c1ccc2c(c1)S(=O)(=O)CCOC2 [Compound 232] | 7.23 | 7.00 | 6.39
20 | CN1CCc2c(-c3ccc4cnc(CNC(=O)c5ccc6c(c5)S(=O)(=O)CCOC6)cc4n3)cccc21 [Compound 233] | 7.11 | 14.01 | 5.97
21 | Cn1cnc2c(-c3ccc4cnc(CNC(=O)c5ccc6c(c5)S(=O)(=O)CCOC6)cc4n3)cccc21 [Compound 234] | 6.73 | 8.09 | 5.82
